Data reported in US11833139B2 (priority 2019, dated 2023).
Converted amounts (≈) assume the structure as drawn. Like-named read-outs stand apart in the source and are kept apart here.

What was measured:
[1] = tested on: A. baumannii HUMC1; test: MIC by broth microdilution (CLSI), carbapenem-resistant clinical isolate HUMC1; format: cell-based, Acinetobacter baumannii
Procedure: (§1) Two A. baumannii isolates were used in this example: HUMC1 (BV374) (Spellberg/Luna Laboratory, University of Southern California, Los Angeles, Calif.) and UNT091-1 (BV378) (UNT Health Science Center, Fort Worth, Tex.). The HUMC1 isolate is a hyper-virulent drug-resistant clinical strain isolated from a blood-stream infection. […] The isolates were stored at −80° C. as 20% (v/v) glycerol cultures.
(§2) MICs were determined by the broth microdilution method following the guidelines of the Clinical Laboratory Standards Institute (CLSI) using RPMI supplemented with […] cationic-adjusted Muller Hinton broth (CA-MHB) as assay medium. To prepare the bacterial inocula, 3-5 colonies of bacterial strains from over-night growth on ChromAgar orientation plates (CHROMagar Cat. No. RT412) were suspended in 5 mL saline. The turbidity of the bacterial suspension was adjusted to 0.5 McFarland units (equal to an optical density at 610 nm (OD610) to 0.08-0.1). This suspension was diluted 200-fold in RPMI supplemented with 10% (v/v) FCS to reach a final concentration of […] colony forming units (CFU)/mL and was used to inoculate the microtiter plates.
(§3) Serial 2-fold dilutions of the antibiotics were prepared in a separate 96-well plate polypropylene U-bottom plate (Ratiolab Cat. No. 6018111) in RPMI supplemented with 10% (v/v) FCS at 10-fold of the final test concentrations and 10 μl of the dilutions were transferred to new 96-well polystyrene U-bottom microtiter plates with a parafilm plate cover.
(§4) The plates were then inoculated with 90 μL per well of the prepared bacterial suspensions in using a multichannel pipette (Eppendorf), with the first column containing 4 wells each for growth control (no antibiotic). […] The MIC was recorded as the lowest concentration of the compound that inhibited bacterial growth by visual inspection. MICs were determined at least in duplicates and in the case of variations, the higher values are provided.

[2] = tested on: A. baumannii UNT091; test: MIC by broth microdilution (CLSI), carbapenem-resistant clinical isolate UNT091; format: cell-based, Acinetobacter baumannii
Procedure: as §1, §2, §3, §4

[3] = tested on: A. baumannii ATCC 17978; test: MIC in fhuE expressing A. baumannii strains (plasmid-based expression, IPTG inducible); format: cell-based, Acinetobacter baumannii; conditions: for MIC: Acinetobacter baumannii
From the text: The fhuE gene (AWC45_RS10145) from the A. baumannii HUMC1 strain was cloned into the E. coli/A. baumannii shuttle plasmid pVT111 under the control of the isopropyl-beta-D-1-thiogalactopyranoside (IPTG) inducible promoter Ptrc-lacO. The resulting plasmid and the original pVT111 plasmid (control) were transferred to the A. baumannii strain ATCC-17978 by conjugation and transconjugants were selected on LB agar plates containing kanamycin.

[4] = tested on: A. baumannii ACC00445
Procedure: (§5) A. baumannii clinical isolates were stored at −80° C. as 20% (v/v) in glycerol stock cultures.
(§6) Selective agar plates were prepared using RPMI powder (Sigma R7755) dissolved at 10.3 g/L with agar at 15 g/L and boiled until complete agar melting. After cooling the media to 45° C., 0.3 g/L L-glutamine (Sigma G7513), 25 mM HEPES (Gibco 15630-056) and 10% (v/v) FCS (Gibco 10500-064) were added.
(§7) The culture inocula were prepared from a bacterial NaCl suspension at 0.5 McFarland diluted 200-times in 100 mL of RPMI (Sigma R8758)+10% FCS in 500 mL flasks to reach ˜5×10^5 CFU/mL. The flasks were incubated for 24 h at 37° C. under shaking at 220 rpm. After incubation, the cells were pelleted by centrifugation (10 min, 7000 rpm at RT) and re-suspended in 1 mL PBS. […] After incubation at 35° C. for 24 h colonies were counted, and the frequency of resistance was calculated as the ratio between the number of colonies growing on plates with antibiotic and the total colony count of the inocula.

[5] = tested on: A. baumannii HUMC-1; conditions: HUMC-1, rifabutin 0.1 mg/L
Procedure: as §5, §6, §7

[6] = tested on: A. baumannii LAC-4
Procedure: as §5, §6, §7

[7] = tested on: A. baumannii UNT091
Procedure: as §5, §6, §7

[8] = tested on: A. baumannii UNT238
Procedure: as §5, §6, §7

[9] = tested on: five clinical A. baumannii strains; conditions: rifabutin concentrations of ≥2 mg/L
Procedure: as §5, §6, §7

[10] = tested on: A. baumannii ACC00445; test: Neutropenic sepsis mouse model (CD-1 mice, IP infection); format: in vivo; conditions: IV at 1 h and 5 h post-infection
From the text: The CD-1 mice were IP infected with A. baumannii ACC00445 strain in the presence of […].

[11] = tested on: A. baumannii UNT091; test: Neutropenic lung infection mouse model (CD-1 mice, intranasal infection); format: in vivo; conditions: UNT091, IV at 2 h post-infection, 24 hours of treatment, doses of <0.5 mg/kg
Procedure: (§8) After 24 hours of treatment the mice were sacrificed and colony forming units in the lungs were measured.

[12] = tested on: A. baumannii UNT093; test: as above; format: in vivo; conditions: UNT093, IV at 2 h post-infection, 24 hours of treatment, doses of <0.5 mg/kg
Procedure: as §8

[13] = tested on: A. baumannii; test: Dose fractionation in a neutropenic mouse model of infection; format: in vivo; conditions: IV q24 h, q12 h or q6 h
From the text: FIG. 5 summarizes the results of dose fractionation experiments in a neutropenic mouse model of infection.

[14] = tested on: A. baumannii; test: Target exposures (PK/PD index, sigmoid Emax model) for 1-log reduction in lung CFUs; format: in vivo
[15] = tested on: A. baumannii UNT091-1 ΔfhuE mutant; test: Neutropenic lung infection in CD-1 mice, wildtype versus ΔfhuE mutant; format: in vivo; conditions: mice infected with UNT091-1::ΔfhuE, single IV dose at 2 h, burden at 26 hours
Procedure: FIG. 6 is a graph showing CFU per lung pair in mice inoculated with A. baumannii strains. Neutropenic, female CD-1 mice (5 per group) were inoculated intranasally (t=0 hr) with equivalent titers (6.90 and 6.93 log10 CFU) of A. baumannii UNT091-1 wildtype and A. baumannii UNT091-1 ΔfhuE mutant. The treatment (single IV dose) was administered at 2-hour post-infection and bacterial burden was reported at 26 hours by determining CFU/lung. Furthermore, the effect of RBT was blunted in mice infected with the UNT091-1::ΔfhuE strain supporting the role of fhuE as mediating RBT sensitivity both in vitro and in vivo.

[16] = tested on: panel of 293 CRAB strains (A. baumannii); test: MIC by agar dilution on Muller Hinton Agar, panel of 293 CRAB strains; format: cell-based
Procedure: The strain panel contained isolates with 10% MDR (n=29), 86% XDR (n=253) and 4% (n=11) PDR phenotypes. Isolates were collected mainly from patients with pneumonia (59%), bloodstream infections (28%), and skin and soft tissue infections (11%) and categorized according to CLSI breakpoints as XDR when […] the antimicrobial classes described by Magiorakos et al. 2011. […] Comparator antibiotics were tested at CLSI standard conditions.

[17] = tested on: A. baumannii; test: Liquid MIC determination using RPMI supplemented with FCS, clinical panel; format: cell-based; conditions: Acinetobacter baumannii
From the text: All isolates were resistant to carbapenems.

[18] = tested on: A. baumannii ATCC-17978 expressing FhuE V38P; test: Complementation assay, plasmid mediated expression of FhuE variants in CA-MHB; format: cell-based; conditions: ATCC-17978 host, 1 mM IPTG
From the text: See, Cadieux, N., Bradbeer, C. & Kadner, R. J. Sequence changes in the ton box region of BtuB affect its transport activities and interaction with TonB protein. J. Bacteriol. 182, 5954-5961 (2000); Funahashi, T. et al. Identification and characterization of an outer membrane receptor gene in Acinetobacter baumannii required for utilization of desferricoprogen, rhodotorulic acid, and desferrioxamine B as xenosiderophores. Biol. Pharm. Bull. 35, 753-760 (2012); the content of each of which is incorporated herein by reference.

[19] = Acinetobacter baumannii, HUMC1, HUMC1, RPMI plus 10% FCS (Table 1), read-out: MIC
[20] = Acinetobacter baumannii, HUMC1, HUMC1 parental strain, RPMI + 10% FCS (Table 2), read-out: MIC
[21] = Acinetobacter baumannii, UNT091, UNT091, CA-MHB (Table 1), read-out: MIC
[22] = Acinetobacter baumannii, UNT091, UNT091, RPMI plus 10% FCS (Table 1), read-out: MIC
[23] = Acinetobacter baumannii, UNT091, UNT091 parental strain, RPMI + 10% FCS (Table 2), read-out: MIC
[24] = Acinetobacter baumannii, iron-chelated nutrient rich MHA (0.1 mM PIH), agar dilution

CO[C@H]1/C=C/O[C@@]2(C)Oc3c(C)c(O)c4c(c3C2=O)C2=NC3(CCN(CC(C)C)CC3)NC2=C(NC(=O)/C(C)=C\C=C\[C@H](C)[C@H](O)[C@@H](C)[C@@H](O)[C@@H](C)[C@H](OC(C)=O)[C@@H]1C)C4=O [rifabutin]
MIC [1, 19]: 0.002 µg/mL
MIC [1, 20]: 0.002 µg/mL
MIC [2, 21]: 8 µg/mL (≈ 9.44 µM)
MIC [2, 22]: 0.002 µg/mL
MIC [2, 23]: 0.002 µg/mL
MIC ([3]; ATCC17978, read-out: rifabutin MIC, FhuE expressing plasmid, CA-MHB 1 mM IPTG): 0.002 µg/mL (≈ 0.00236 µM)
MIC ([3]; ATCC17978, read-out: rifabutin MIC, FhuE expressing plasmid, CA-MHB no IPTG): 0.016 µg/mL (≈ 0.0189 µM)
MIC ([3]; ATCC17978, read-out: rifabutin MIC, empty plasmid, CA-MHB 1 mM IPTG): 2 µg/mL (≈ 2.36 µM)
MIC ([3]; ATCC17978, read-out: rifabutin MIC, empty plasmid, CA-MHB no IPTG): 1 µg/mL (≈ 1.18 µM)
MIC ([3]; ATCC17978, read-out: rifabutin MIC, no plasmid, CA-MHB 1 mM IPTG): 4 µg/mL (≈ 4.72 µM)
MIC ([3]; ATCC17978, read-out: rifabutin MIC, no plasmid, CA-MHB no IPTG): 4 µg/mL (≈ 4.72 µM)
MIC lower in fhuE expressing plasmid strain compared to empty plasmid strain ([3]; in the presence of IPTG): 1000 fold
Frequency of Mutational Resistance (FoR) ([4]; ACC00445, rifabutin 0.02 mg/L): 1.10E−05
Frequency of Mutational Resistance (FoR) ([4]; ACC00445, rifabutin 0.2 mg/L): 8.10E−06
Frequency of Mutational Resistance (FoR) ([4]; ACC00445, rifabutin 2 mg/L): 2.40E−09
Frequency of Mutational Resistance (FoR) ([4]; ACC00445, rifabutin 20 mg/L): 5.70E−09
Frequency of Mutational Resistance (FoR) [5]: 1.70E−05
Frequency of Mutational Resistance (FoR) ([6]; LAC-4, rifabutin 0.2 mg/L): 7.00E−05
Frequency of Mutational Resistance (FoR) ([6]; LAC-4, rifabutin 2 mg/L): 5.00E−09
Frequency of Mutational Resistance (FoR) ([6]; LAC-4, rifabutin 20 mg/L): 4.20E−09
Frequency of Mutational Resistance (FoR) ([7]; UNT091, rifabutin 0.02 mg/L): 7.80E−06
Frequency of Mutational Resistance (FoR) ([7]; UNT091, rifabutin 0.2 mg/L): 6.40E−06
Frequency of Mutational Resistance (FoR) ([7]; UNT091, rifabutin 2 mg/L): 7.10E−09
Frequency of Mutational Resistance (FoR) ([7]; UNT091, rifabutin 20 mg/L): 7.80E−09
Frequency of Mutational Resistance (FoR) ([8]; UNT238, rifabutin 0.2 mg/L): 2.30E−05
Frequency of Mutational Resistance (FoR) ([8]; UNT238, rifabutin 2 mg/L): 8.80E−10
Frequency of Mutational Resistance (FoR) ([8]; UNT238, rifabutin 20 mg/L): 1.60E−08
frequency of mutational resistance [9]: ~10^−9
protection against sepsis ([10]; 1 mg/kg): protects against sepsis
effect on colony forming units in the lungs [11]: potent effect
effect on colony forming units in the lungs [12]: potent effect
dose fractionation result [13]: clear dose response relationship
Target AUC required to treat ([14]; MIC 0.5 mg/L): 5.74 mg·h/L
Target Cmax required to treat ([14]; MIC 0.5 mg/L): 1.30 mg/L
Target AUC required to treat ([14]; MIC 1 mg/L): 11.48 mg·h/L
Target Cmax required to treat ([14]; MIC 1 mg/L): 2.59 mg/L
Target AUC required to treat ([14]; MIC 2 mg/L): 22.96 mg·h/L
Target Cmax required to treat ([14]; MIC 2 mg/L): 5.19 mg/L
effect on bacterial burden (CFU/lung) [15]: blunted
MIC50 [16, 24]: 0.008 µg/mL (≈ 0.00944 µM)
MIC90 [16, 24]: 1 µg/mL (≈ 1.18 µM)
activity ([16]; standard MHA): only marginal activity
MIC50 [17]: 0.004 µg/mL (≈ 0.00472 µM)
MIC90 [17]: 2 µg/mL (≈ 2.36 µM)
restoration of potent activity by FhuE V38P expression compared to wildtype FhuE [18]: not able to restore rifabutin potent activity

CO[C@H]1/C=C/O[C@@]2(C)Oc3c(C)c(O)c4c(O)c(c(/C=N/N5CCN(C)CC5)c(O)c4c3C2=O)NC(=O)/C(C)=C\C=C\[C@H](C)[C@H](O)[C@@H](C)[C@@H](O)[C@@H](C)[C@H](OC(C)=O)[C@@H]1C [rifampin]
MIC ([1]; Acinetobacter baumannii, HUMC1, HUMC1, CA-MHB (Table 1), read-out: MIC): 16 µg/mL (≈ 19.4 µM)
MIC [1, 19]: 16 µg/mL
MIC [1, 20]: 32 µg/mL
MIC [2, 21]: 8 µg/mL (≈ 9.72 µM)
MIC [2, 22]: 16 µg/mL
MIC [2, 23]: 2 µg/mL
protection against sepsis ([10]; 10 mg/kg): does not

gentamicin
MIC ([1]; HUMC1, CA-MHB (Table 1)): >16 µg/mL
MIC ([1]; HUMC1, RPMI plus 10% FCS (Table 1)): >16 µg/mL
MIC ([2]; UNT091, CA-MHB (Table 1)): >16 µg/mL
MIC ([2]; UNT091, RPMI plus 10% FCS (Table 1)): >16 µg/mL
